Measured values published in patent US20230002359A1, “PESTICIDALLY ACTIVE FUSED BICYCLIC HETEROAROMATIC COMPOUNDS” (priority 2019, published 2023).

Experiments:
[1] = tested on: Plutella xylostella (Diamondback Moth); assay: Example B9: Plutella xylostella (diamondback moth), artificial diet, eggs, 96-well; type: in vivo; details: 216 h, application rate of 500 ppm, 9 days after infestation, read-out: control in mortality
Method: 96-well microtiter plates containing artificial diet were treated with aqueous test solutions, prepared from 10′000 ppm DMSO stock solutions, by a liquid handling robot. After drying, eggs (˜30 per well) were infested onto a netted lid which was suspended above the diet. The eggs hatch and L1 larvae move down to the diet. The samples were assessed for mortality 9 days after infestation.

[2] = tested on: Chilo suppressalis (Striped Rice Stemborer); assay: Example B3: Chilo suppressalis (striped rice stemborer), artificial diet, L2 larvae; type: in vivo; details: 144 h, application rate of 200 ppm, 6 days after infestation, L2 larvae, read-out: control in at least one of the three categories (mortality, anti-feedant effect, or growth inhibition)
How it was run: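 Scoring covers mortality, anti-feedant effect and growth inhibition at 6 days post-infestation, relative to untreated diet, with activity defined as at least one category above untreated. Test solutions were aqueous, made from 10'000 ppm DMSO stocks, and applied to artificial diet before drying and infestation with L2 larvae.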

[3] = tested on: Plutella xylostella (Diamond Back Moth); assay: Example B4: Plutella xylostella (diamond back moth), artificial diet, eggs, 24-well; type: in vivo; details: 192 h, application rate of 200 ppm, 8 days after infestation, eggs, read-out: control in at least one of the two categories (mortality or growth inhibition)
Method: 24-well microtiter plates with artificial diet were treated with aqueous test solutions prepared from 10′000 ppm DMSO stock solutions by pipetting. After drying, Plutella eggs were pipetted through a plastic stencil onto a gel blotting paper and the plate was closed with it. The samples were assessed for mortality and growth inhibition in comparison to untreated samples 8 days after infestation.

[4] = tested on: Spodoptera littoralis (Egyptian Cotton Leaf Worm); assay: Example B7: Spodoptera littoralis (Egyptian cotton leaf worm), cotton leaf discs sprayed, L1 larvae; type: in vivo; details: foliar, 72 h, application rate of 200 ppm, 3 days after infestation, L1 larvae, read-out: control in at least one of the three categories (mortality, anti-feedant effect, or growth inhibition)
How it was run: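 Spray application onto agar-supported cotton leaf discs used aqueous solutions derived from 10′000 ppm DMSO stocks. Once dry, discs were infested with five L1 larvae and evaluated after 3 days for mortality, anti-feeding and growth inhibition relative to untreated controls.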

[5] = tested on: Diabrotica Balteata (Corn Root Worm); assay: Example B1: Diabrotica balteata (corn root worm), maize sprouts sprayed, L2 larvae; type: in vivo; details: 96 h, application rate of 200 ppm, 4 days after infestation, L2 larvae, read-out: control in at least one of the two categories (mortality or growth inhibition)
How it was run: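 Spray test: maize sprouts on agar, aqueous dilutions of 10′000 ppm DMSO stock; after drying, 6–10 L2 larvae/well. Read-out at 4 d post-infestation: mortality and growth inhibition vs untreated.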

[6] = tested on: Myzus persicae (Green Peach Aphid); assay: Example B6: Myzus persicae (green peach aphid) intrinsic activity, sucrose solution; type: in vivo; details: 120 h, test rate of 12 ppm, 5 days after infestation, intrinsic activity, read-out: mortality
How it was run: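 Mortality was read 5 days after infestation. Aphids on pea seedlings fed through a stretched Parafilm membrane on inverted 24-well plates containing sucrose solution mixed with test compound, which was diluted from 10′000 ppm DMSO stock.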

| SMILES | melting point [°C] | mortality at 500 ppm [1] [%] | also measured |
| --- | --- | --- | --- |
| CC(Nc1ncnc2c(Cl)cc(C(F)(F)F)cc12)c1nccnc1-c1ccc(Br)cn1 (stereo not drawn) | 230 to 232 |  |  |
| CC(Nc1ncnc2c(Cl)c(F)c(Cl)cc12)c1ncnn1-c1ccc(C#N)cn1 (stereo not drawn) | 215 to 225 |  |  |
| CC(Nc1ncnc2c(C(F)(F)F)cc(Br)cc12)c1ncnn1-c1ccc(F)cn1 (stereo not drawn) | 282 to 284 |  |  |
| Cc1nc(NC(C)c2ncnn2-c2ccc(C#N)cn2)c2cc(C(F)(F)F)cc(C(F)(F)F)c2n1 (stereo not drawn) [P.60, 6-[5-[1-[[2-methyl-6,8-bis(trifluoromethyl)quinazolin-4-yl]amino]ethyl]-1,2,4-triazol-1-yl]pyridine-3-carbonitrile] |  | ≥ 80 | percent control (mortality, anti-feedant effect or growth inhibition) at 200 ppm [2]: ≥ 80%; percent control (mortality or growth inhibition) at 200 ppm [3]: ≥ 80% |
| CC(Nc1ncnc2c(C(F)(F)F)cc(C(F)(F)F)cc12)c1ncnn1-c1ccc(C#N)cn1 (stereo not drawn) [P.61, 6-[5-[1-[[6,8-bis(trifluoromethyl)quina-zolin-4-yl]amino]ethyl]-1,2,4-triazol-1-yl]pyridine-3-carbonitrile] |  | ≥ 80 | percent control (mortality, anti-feedant effect or growth inhibition) at 200 ppm [4]: ≥ 80%; percent control (mortality, anti-feedant effect or growth inhibition) at 200 ppm [2]: ≥ 80%; percent control (mortality or growth inhibition) at 200 ppm [3]: ≥ 80% |
| CC(Nc1ncnc2c(C(F)(F)F)cccc12)c1ncnn1-c1ccc(C#N)cn1 (stereo not drawn) [P.62, 6-[5-[1-[[8-(trifluoromethyl)quinazolin-4-yl]amino]ethyl]-1,2,4-triazol-1-yl]pyridine-3-carbonitrile] |  | ≥ 80 | percent control (mortality, anti-feedant effect or growth inhibition) at 200 ppm [2]: ≥ 80%; percent control (mortality or growth inhibition) at 200 ppm [3]: ≥ 80% |
| CC(Nc1ncnc2c(C(F)(F)F)cc(Br)cc12)c1ncnn1-c1ccc(C#N)cn1 (stereo not drawn) [P.63, 6-[5-[1-[[6-bromo-8-(trifluoromethyl)quinazolin-4-yl]amino]ethyl]-1,2,4-triazol-1-yl]pyridine-3-carbonitrile] |  | ≥ 80 | percent control (mortality, anti-feedant effect or growth inhibition) at 200 ppm [4]: ≥ 80%; percent control (mortality, anti-feedant effect or growth inhibition) at 200 ppm [2]: ≥ 80%; percent control (mortality or growth inhibition) at 200 ppm [3]: ≥ 80% |
| CC(Nc1ncnc2ccc(C(F)(F)F)cc12)c1ncnn1-c1ccc(C#N)cn1 (stereo not drawn) [P.64, 6-[5-[1-[[6-(trifluoromethyl)quinazolin-4-yl]amino]ethyl]-1,2,4-triazol-1-yl]pyridine-3-carbonitrile] |  | ≥ 80 | percent control (mortality or growth inhibition) at 200 ppm [5]: ≥ 80%; percent control (mortality, anti-feedant effect or growth inhibition) at 200 ppm [4]: ≥ 80%; percent control (mortality, anti-feedant effect or growth inhibition) at 200 ppm [2]: ≥ 80%; percent control (mortality or growth inhibition) at 200 ppm [3]: ≥ 80% |
| CC(Nc1ncnc2c(Cl)cc(Cl)cc12)c1ncnn1-c1ccc(C#N)cn1 (stereo not drawn) [P.65, 6-[5-[1-[(6,8-dichloroquinazolin-4-yl)amio]ethyl]-1,2,4-triazol-1-yl]pyridine-3-carbonitrile] |  | ≥ 80 | percent control (mortality, anti-feedant effect or growth inhibition) at 200 ppm [2]: ≥ 80%; percent control (mortality or growth inhibition) at 200 ppm [3]: ≥ 80% |
| CC(c1ncnn1-c1ncccn1)N(C)c1ncnc2c(Cl)cc(Cl)cc12 (stereo not drawn) [P.66, 6,8-dichloro-N-methyl-N-[1-(2-pyrimidin-2-yl-1,2,4-triazol-3-yl)ethyl]quianzolin-4-amine] |  | ≥ 80 | percent control (mortality or growth inhibition) at 200 ppm [5]: ≥ 80%; mortality at 12 ppm [6]: ≥ 80%; percent control (mortality, anti-feedant effect or growth inhibition) at 200 ppm [2]: ≥ 80%; percent control (mortality or growth inhibition) at 200 ppm [3]: ≥ 80% |
| CC(Nc1ccnc2c(Cl)cc(Cl)cc12)c1ncnn1-c1ncccn1 (stereo not drawn) [P.67, 6,8-dichloro-N-[1-(2-pyrimidin-2-yl-1,2,4-triazol-3-yl)ethyl]quinolin-4-amine] |  | ≥ 80 | percent control (mortality or growth inhibition) at 200 ppm [5]: ≥ 80%; percent control (mortality, anti-feedant effect or growth inhibition) at 200 ppm [4]: ≥ 80%; percent control (mortality, anti-feedant effect or growth inhibition) at 200 ppm [2]: ≥ 80%; percent control (mortality or growth inhibition) at 200 ppm [3]: ≥ 80% |
| CC(Nc1ncnc2c(Cl)cc(Cl)cc12)c1ncnn1-c1ncccn1 (stereo not drawn) [P.68, 6,8-dichloro-N-[1-(2-pyrimidin-2-yl-1,2,4-triazol-3-yl)ethyl]quinazolin-4-amine] |  | ≥ 80 | percent control (mortality or growth inhibition) at 200 ppm [5]: ≥ 80%; percent control (mortality, anti-feedant effect or growth inhibition) at 200 ppm [4]: ≥ 80%; percent control (mortality, anti-feedant effect or growth inhibition) at 200 ppm [2]: ≥ 80%; percent control (mortality or growth inhibition) at 200 ppm [3]: ≥ 80% |
| CC(Nc1nccc2c(C(F)(F)F)cccc12)c1ncnn1-c1ccccn1 (stereo not drawn) [P.69, N-[1-[2-(2-pyridyl)-1,2,4-triazol-3-yl]ethyl]-5-(trifluoromethyl)isoquino-lin-1-amine] |  | ≥ 80 |  |
| CC(Nc1ncnc2c(Cl)nccc12)c1nccnc1-n1nccn1 (stereo not drawn) [P.277, 8-chloro-N-[1-[3-(triazol-2-yl)pyrazin-2-yl]ethyl]pyrido[3,4-d]pyrimidin-4-amine] |  | ≥ 80 |  |

Second part, led by results:

| melting point [°C] | SMILES | mortality at 500 ppm [1] [%] | also measured |
| --- | --- | --- | --- |
| 77 to 79 | C[C@@H](c1ncnn1-c1ccc(-c2nnn[nH]2)cn1)N(C)c1ncnc2c(C(F)(F)F)cc(Cl)cc12 |  |  |
| 203 to 205 | C[C@H](Nc1c(C#N)cnc2c(C(F)(F)F)cc(C(F)(F)F)cc12)c1ncnn1-c1ncccn1 |  |  |
| 204 to 206 | C[C@H](Nc1c(C#N)cnc2c(C(F)(F)F)cc(C(F)(F)F)cc12)c1ncnn1-c1ccc(C#N)cn1 |  |  |
| 142 to 144 | C[C@@H](c1ncnn1-c1ccc(-c2nccs2)cn1)N(C)c1ncnc2c(C(F)(F)F)cc(Cl)cc12 |  |  |
| 182 to 184 | C[C@@H](c1ncnn1-c1ncccn1)N(C)c1ncnc2c(C(F)(F)F)cc(C3CC3)cc12 |  |  |
| 75 to 77 | C[C@@H](c1ncnn1-c1ccc(-c2noc(C(F)(F)F)n2)cn1)N(C)c1ncnc2c(C(F)(F)F)cc(Cl)cc12 |  |  |
| 240 to 242 | CC(Nc1ncnc2c(Cl)cc(C(F)(F)F)cc12)c1ncnn1-c1ccc(OC(F)F)cn1 (stereo not drawn) |  |  |
| 102 to 104 | CC(c1ncnn1-c1ccc(OC(F)F)cn1)N(C)c1ncnc2c(Cl)cc(C(F)(F)F)cc12 (stereo not drawn) |  |  |
| 75 to 77 | CC(c1ncnn1-c1ccc(OC(F)F)cn1)N(C)c1ncnc2c(Br)cc(C(F)(F)F)cc12 (stereo not drawn) |  |  |
| 183 to 185 | C[C@@H](c1ncnn1-c1ccc(C(N)=O)cn1)N(C)c1ncnc2c(C(F)(F)F)cc(C(F)(F)F)cc12 |  |  |
| 223 to 225 | C[C@@H](c1ncnn1-c1ccc(C(N)=NO)cn1)N(C)c1ncnc2c(C(F)(F)F)cc(Cl)cc12 |  |  |
| 142 to 144 | CC(c1nccnc1-c1ccc(Br)cn1)N(C)c1ncnc2c(Cl)cc(C(F)(F)F)cc12 (stereo not drawn) |  |  |
| 254 to 256 | CC(c1nccnc1-c1ccc(C#N)cn1)N(CC1CC1)c1ncnc2c(C(F)(F)F)cc(Cl)cc12 (stereo not drawn) |  |  |
| 145 to 155 | CC(c1ncnn1-c1ccc(C#N)cn1)N(C)c1ncnc2c(Cl)c(F)c(Cl)cc12 (stereo not drawn) |  |  |
| 261 to 263 | CC(Nc1c(C#N)cnc2c(C(F)(F)F)cc(C(F)(F)F)cc12)c1ncnn1-c1ccc(C#N)cn1 (stereo not drawn) |  |  |
| 274 to 276 | CC(Nc1ncnc2c(C(F)(F)F)cc(Cl)cc12)c1ncnn1-c1ccc(Br)cn1 (stereo not drawn) |  |  |
| 87 to 89 | CC(c1ncnn1-c1ncccn1)N(CC1CC1)c1nc(Cl)nc2c(Br)cc(C(F)(F)F)cc12 (stereo not drawn) |  |  |
| 214 to 216 | CC(Nc1ncnc2c(C(F)(F)F)cc(Br)cc12)c1ncnn1-c1ccc(Br)cn1 (stereo not drawn) |  |  |
